Data published in patent US11052157B2 (priority 2014, dated 2021).
Where a name gives a salt, the structure may show the parent alone. One block for each compound: values may come before it.

Assays:
[1] = Fluorescence readings of doxorubicin loading solutions with folic acid (plate reader); format: physicochemical; settings: for % Fluorescence Em λ590 nm / % Fluorescence Em λ620 nm: excitation 485 nm
Description: The solutions were incubated at room temperature overnight and then were filtered through a 0.1 μm filter, to sterilize the solutions and to remove any particulates.
On the following day the fluorescence of an aliquot of each solution was measured with a fluorescence plate reader (excitation wavelength: 485 nm, emission wavelengths: 590 nm and 620 nm). Concomitantly, minicells were washed with PBS buffer and then were loaded with one or another of each of the Dox+FA solutions, previously prepared at a density of 2.5×10^10 minicells/ml, in a volume between about 1 ml to 2 mls. Samples (500 μl) were taken from each of the treatment groups at the time points of 30 minutes, 1 hour, 2 hours, 4 hours, 6 hours, and overnight.

[2] = system: MDA-MB-468 human breast cancer cells; experiment: Incubation of non-targeted doxorubicin-loaded minicells (small-scale protocol) with cancer cells, confocal microscopy; format: cell-based; settings: 1×10^8 non-targeted doxorubicin-loaded minicells (small-scale protocol), 10^4 cells per well; within two days
Description: Upon overnight incubation with the drug (about 1 ml/mg) at 37° C. with rotation, the loaded minicells were subjected five times to a washing step that entailed centrifugation (13,200 rpm, 10 minutes) and resuspension of the resultant pellet in 1 ml BSG buffer (pH 7.4).
The washed, doxorubicin-loaded minicells (1×10^8) then were incubated with estrogen receptor-negative MDA-MB-468 human breast cancer cells (10^4 cells per well) in Gibco RPMI-1640 tissue culture medium (in 0.5 ml per well) supplemented with 10% Fetal Bovine Serum, 2 mM L-glutamine, and 100 U/ml of both penicillin G and streptomycin.
The cells were monitored subsequently every 24 hours via confocal microscopy.

[3] = system: intact, bacterially derived minicells; experiment: Flow cytometry of dye-packaged minicells (FL1 channel); parameters: species or system Salmonella enterica serovar Typhimurium; settings: BacLight Green 200 nM, 30 minutes, room temperature
Description: (§1) Minicells packaged with BacLight™ Green were analyzed by flow cytometry (Beckman Coulter FC500). Empty minicells and BacLight™ Green-packaged minicells were labeled with an anti-LPS alexa fluor 647 (AF647) antibody. Firstly, the minicells were analyzed using the FL4 channel to detect anti-LPS AF647-stained minicells. The minicell population was visualized in a dot plot using FL4 fluorescence versus forward scatter, and the population was gated to select anti-LPS AF647 stained minicells only, disregarding any debris.
The gated population was analyzed on the FL1 channel, to detect BacLight™ Green fluorescence.
as §1, with “loaded” for “packaged”, “SYTO 9®” for “BacLight™ Green”, “SYTO® 9-stained” for “BacLight™ Green-packaged”, “plot,” for “plot”, “AF647-stained” for “AF647 stained”, “debris. The gated population then was analyzed on the FL1 channel, to detect SYTO 9 fluorescence.” for “debris.”

[4] = cited from earlier work

% Fluorescence Em λ590 nm ([1]; 0 μg/ml FA, Dox 100 pg/ml in PBS): 100% | % Fluorescence Em λ620 nm ([1]; 0 μg/ml FA): 100% | % Fluorescence Em λ590 nm ([1]; 50 μg/ml FA): 93% | % Fluorescence Em λ620 nm ([1]; 50 μg/ml FA): 94% | doxorubicin emission fluorescence lost ([1]; 50 μg/ml folic acid): 6-7% | % Fluorescence Em λ590 nm ([1]; 400 μg/ml FA): 61% | % Fluorescence Em λ620 nm ([1]; 400 μg/ml FA): 59% | doxorubicin fluorescence emission signal lost ([1]; 400 μg/ml of folic acid): ~40%
Compound: doxorubicin
doxorubicin entry into cancer cells (confocal microscopy) [2]: red fluorescence in their nuclei

Compound: CN1C(=CC=Cc2n(Cc3ccc(CCl)cc3)c3cc(Cl)c(Cl)cc3[n+]2Cc2ccc(CCl)cc2)Oc2ccccc21.[Cl-] [BacLight™ Green]
minicells that are fluorescent [3]: greater than 95%

Compound: O=C1c2c(O)ccc(O)c2C(=O)c2c(NCCNCCO)ccc(NCCNCCO)c21 [MTX, mitoxantrone dihydrochloride]
solubility in water [4]: 5000 to 7500 µg/mL
